Data: ChEMBL document CHEMBL1201862, “PubChem BioAssay data set” (2004)
Calls of active or inactive are those of the source.

Experiments:
[1] = molecular target: T1, Apoptotic protease-activating factor 1 (Homo sapiens, UniProt O14727); type: functional
T1 sequence (O14727 whole entry): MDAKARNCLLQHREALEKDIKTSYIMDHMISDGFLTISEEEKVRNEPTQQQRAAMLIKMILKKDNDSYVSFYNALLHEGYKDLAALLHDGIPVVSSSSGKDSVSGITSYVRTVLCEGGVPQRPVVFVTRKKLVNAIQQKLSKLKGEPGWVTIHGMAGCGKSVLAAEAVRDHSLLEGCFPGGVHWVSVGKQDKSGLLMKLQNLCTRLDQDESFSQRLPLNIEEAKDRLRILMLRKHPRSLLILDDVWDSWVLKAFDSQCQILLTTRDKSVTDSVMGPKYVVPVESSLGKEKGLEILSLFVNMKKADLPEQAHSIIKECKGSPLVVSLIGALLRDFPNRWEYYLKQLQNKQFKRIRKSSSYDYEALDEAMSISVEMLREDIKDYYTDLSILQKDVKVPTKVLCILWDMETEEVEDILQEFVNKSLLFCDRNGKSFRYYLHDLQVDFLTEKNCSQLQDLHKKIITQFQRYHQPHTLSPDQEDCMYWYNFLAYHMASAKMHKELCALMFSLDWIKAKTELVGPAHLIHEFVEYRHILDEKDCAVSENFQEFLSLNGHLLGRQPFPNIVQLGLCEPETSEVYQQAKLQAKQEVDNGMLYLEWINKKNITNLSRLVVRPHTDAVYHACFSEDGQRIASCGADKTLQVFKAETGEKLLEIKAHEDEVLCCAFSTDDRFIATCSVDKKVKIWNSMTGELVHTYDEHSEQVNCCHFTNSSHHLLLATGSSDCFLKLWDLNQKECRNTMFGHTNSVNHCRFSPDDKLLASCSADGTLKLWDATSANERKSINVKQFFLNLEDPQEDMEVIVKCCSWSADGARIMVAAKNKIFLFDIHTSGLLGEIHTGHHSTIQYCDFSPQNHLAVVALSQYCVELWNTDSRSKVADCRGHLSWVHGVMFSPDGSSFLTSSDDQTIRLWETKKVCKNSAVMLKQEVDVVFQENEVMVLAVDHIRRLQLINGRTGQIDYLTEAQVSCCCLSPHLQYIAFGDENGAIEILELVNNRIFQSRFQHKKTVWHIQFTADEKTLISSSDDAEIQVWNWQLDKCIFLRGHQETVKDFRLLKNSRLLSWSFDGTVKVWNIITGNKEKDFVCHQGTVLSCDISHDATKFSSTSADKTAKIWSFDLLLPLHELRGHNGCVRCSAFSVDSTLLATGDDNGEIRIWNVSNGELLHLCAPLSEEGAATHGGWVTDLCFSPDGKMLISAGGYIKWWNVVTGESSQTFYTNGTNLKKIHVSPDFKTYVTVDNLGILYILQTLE

[2] = molecular target: T2, Mitochondrial peptide methionine sulfoxide reductase (Bos taurus, UniProt P54149); assay: Absorbance-based biochemical high throughput dose response assay for activators of Methionine sulfoxide reductase A (MsrA).; type: functional
T2 sequence (P54149 whole entry): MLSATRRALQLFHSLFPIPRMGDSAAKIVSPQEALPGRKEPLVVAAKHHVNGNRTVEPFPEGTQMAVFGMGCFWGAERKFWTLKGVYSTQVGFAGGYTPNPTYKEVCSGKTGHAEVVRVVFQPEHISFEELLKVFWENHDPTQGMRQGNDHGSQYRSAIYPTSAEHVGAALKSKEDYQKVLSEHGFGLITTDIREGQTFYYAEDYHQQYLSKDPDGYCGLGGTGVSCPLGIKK

[3] = molecular target: Photoreceptor-specific nuclear receptor (Homo sapiens, UniProt Q9Y5X4); type: functional, cell-based;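 note: CHO-S cells with Gal4-NCOR and VP16-NR2E3 two-hybrid luciferase reporter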
[4] = growth suppression of PTEN-null colon cells, dose response, cell-based, HCT116 PTEN knockout (AID 1047); type: functional;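 note: HCT116 colon tumor cells with PTEN knocked out; cells exposed to compound for 60 hours before readout; potency for loss of cell viability measured by luminescence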
[5] = molecular target: Paired box protein Pax-8 (Homo sapiens, UniProt Q06710); assay: inhibitors of PAX8-driven TPO luciferase reporter, dose response, RMG-I cells, cherry-pick (AID 687027); type: functional, cell-based;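 note: luciferase reporter driven by Pax8 target thyroperoxidase promoter measured by SteadyGlo luminescence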
[6] = system: HEK293; assay: cells; type: functional, cell-based; settings: Homo sapiens
[7] = Luminescence Cell-Based Dose Retest to Confirm Inhibitors of Cancer Stem Cells. [Related pubchem assays (depositor defined):AID2717, AID2721]; type: functional; settings: Homo sapiens
[8] = molecular target: T3, Short transient receptor potential channel 4 (Mus musculus, UniProt Q9QUQ5); assay: mouse TRPC4 channel inhibitors, dose response, cell-based, HEK293 TRPC4/mu-opioid, Fluo-4 calcium (AID 434942); type: functional;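 note: potency of inhibitors blocking the TRPC4 calcium response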
T3 sequence (Q9QUQ5 whole entry): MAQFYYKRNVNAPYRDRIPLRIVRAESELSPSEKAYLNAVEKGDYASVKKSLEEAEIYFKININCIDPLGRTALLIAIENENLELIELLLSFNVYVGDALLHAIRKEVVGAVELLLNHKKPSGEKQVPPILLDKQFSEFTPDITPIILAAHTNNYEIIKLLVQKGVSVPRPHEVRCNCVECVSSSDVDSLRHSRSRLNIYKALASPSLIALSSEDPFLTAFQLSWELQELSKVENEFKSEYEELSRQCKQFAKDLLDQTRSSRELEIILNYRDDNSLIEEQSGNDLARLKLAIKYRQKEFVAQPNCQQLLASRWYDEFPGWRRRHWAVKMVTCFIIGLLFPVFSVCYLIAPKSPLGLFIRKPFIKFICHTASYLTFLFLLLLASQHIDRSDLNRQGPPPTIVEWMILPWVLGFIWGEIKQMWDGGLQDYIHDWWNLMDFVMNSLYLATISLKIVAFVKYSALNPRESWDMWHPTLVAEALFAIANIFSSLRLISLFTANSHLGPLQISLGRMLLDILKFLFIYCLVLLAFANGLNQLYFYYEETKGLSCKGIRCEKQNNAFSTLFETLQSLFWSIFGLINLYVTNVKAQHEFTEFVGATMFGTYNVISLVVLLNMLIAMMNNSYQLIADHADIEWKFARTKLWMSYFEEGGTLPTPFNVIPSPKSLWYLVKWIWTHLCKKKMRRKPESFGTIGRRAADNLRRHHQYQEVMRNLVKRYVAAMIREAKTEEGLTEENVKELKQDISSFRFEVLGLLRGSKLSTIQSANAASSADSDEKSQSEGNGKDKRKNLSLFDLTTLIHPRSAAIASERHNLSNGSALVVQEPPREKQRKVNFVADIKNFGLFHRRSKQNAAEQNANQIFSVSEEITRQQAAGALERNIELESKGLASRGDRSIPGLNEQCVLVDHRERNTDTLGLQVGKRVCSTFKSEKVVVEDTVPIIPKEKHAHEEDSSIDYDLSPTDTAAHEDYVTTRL

Photoreceptor-specific nuclear receptor, sequence (Q9Y5X4 whole entry, the tested form may be a part): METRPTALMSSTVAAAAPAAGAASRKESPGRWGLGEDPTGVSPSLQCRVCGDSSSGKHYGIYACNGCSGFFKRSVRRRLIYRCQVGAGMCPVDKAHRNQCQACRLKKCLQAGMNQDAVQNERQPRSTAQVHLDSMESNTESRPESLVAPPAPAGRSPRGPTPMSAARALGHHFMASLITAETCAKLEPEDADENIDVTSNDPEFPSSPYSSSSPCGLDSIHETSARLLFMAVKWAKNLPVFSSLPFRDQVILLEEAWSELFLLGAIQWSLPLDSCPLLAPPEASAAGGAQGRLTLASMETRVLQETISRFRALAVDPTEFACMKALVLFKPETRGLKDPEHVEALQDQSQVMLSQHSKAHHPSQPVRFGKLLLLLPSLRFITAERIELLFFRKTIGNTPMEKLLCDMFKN
Paired box protein Pax-8, sequence (Q06710 whole entry): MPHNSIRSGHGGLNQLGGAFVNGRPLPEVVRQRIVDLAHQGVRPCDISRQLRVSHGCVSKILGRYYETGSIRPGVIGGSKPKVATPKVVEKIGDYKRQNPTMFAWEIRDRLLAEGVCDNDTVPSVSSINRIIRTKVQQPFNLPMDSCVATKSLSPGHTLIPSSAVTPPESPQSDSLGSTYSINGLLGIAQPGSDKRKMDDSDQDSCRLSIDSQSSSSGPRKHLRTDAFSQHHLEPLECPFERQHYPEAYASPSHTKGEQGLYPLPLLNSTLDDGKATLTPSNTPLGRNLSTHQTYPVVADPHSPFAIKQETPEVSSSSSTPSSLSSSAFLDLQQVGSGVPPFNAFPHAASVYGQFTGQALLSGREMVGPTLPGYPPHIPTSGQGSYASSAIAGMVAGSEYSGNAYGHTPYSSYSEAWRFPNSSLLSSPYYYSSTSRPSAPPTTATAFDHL

## COc1ccc(CNC(=O)c2c(C)oc3c2C(=O)c2ccccc2C3=O)cc1
[1]
  IC50: 23.1 µM (active)
[2]
  EC50: > 104 µM (inactive)
[3]
  IC50: 1.21 µM (active)
[4]
  EC50: 20.1 µM (active)

## CCSc1nsc(NC(=O)Nc2cccc(F)c2)n1
[5]
  AC50: 5.73 µM (active)
[6]
  IC50: 3.7 µM (active)

## O=[N+]([O-])c1ccc(/C=N/n2cnc3ccccc32)s1
[7]
  AC50: 3.84 µM (active)

## CC(C)c1ccc(S(=O)(=O)/N=C2\C=C(NS(=O)(=O)c3ccccc3)C(=O)c3ccccc32)cc1
[8]
  EC50: 7.5 µM (active)
